Entries after “also recorded” stand apart in the source; their conditions may differ. Where two headings read alike, the source gives them in different places. Values belong to the molecule of their own block, whether it stands above or below them.
Key:
[1] = tested on: vacuolar lipid dynamics in P. falciparum; test: Effect on vacuolar lipid dynamics (Oil Red O staining); format: cell-based, Plasmodium falciparum; conditions: trophozoite stage parasites, 24 h
Procedure: Because cellular vacuolation may result from perturbation of intracellular lipid content, we investigated the effect of (±)-moxiquindole on vacuolar lipid dynamics using fluorescent Oil red O as lipid stain.
The effect of the compounds on intracellular lipid dynamics was assessed by measurement of intracellular lipid content using Oil Red O. Briefly, early rings or late trophozoite stage parasites (30 hpi) were treated with the compounds or controls for 24 h under regular culture conditions. Following treatment, inhibitors were removed by centrifugation at 2500 rpm for 5 min and pellets were washed in equal volumes of 1×PBS. The parasites were fixed with 4% paraformaldehyde for 30 min at room temperature and pelleted at 2500. Three volumes of Oil Red O (ORO) stock solution (5 mg/mL in 100% isopropanol) were diluted in two volumes of distilled water and filtered prior to use. About 100 μL of the ORO were added to parasite pellets in the tube and incubated for 30 minutes. Parasites were pelleted and washed twice in distilled water. Thereafter, parasites were deposited on pre-cleaned coverslips and air dried. Dried coverslips were mounted in DAPI antifade reagent onto cleaned slides, air dried and viewed under a 100× oil immersion lens and images acquired using a Leica DM1000 fluorescence microscope suite (LAS version 4.5).

[2] = tested on: asexual blood stages of P. falciparum; test: Life cycle stage specific action by microscopy of Giemsa-stained thin smears; format: cell-based, Plasmodium falciparum; conditions: 10 μM, 24 h; for stage specific action on asexual blood stages (ring, trophozoite, schizont): treated at early ring, mid-trophozoite or mid-schizont; for vacuolation in treated parasites: Giemsa-stained thin smears
Procedure: The life cycle stage specific action of (±)-moxiquindole was determined by treatment of parasites at different time points followed by microscopic analysis of Giemsa-stained thin blood smears. Stage proportions were calculated for each asexual parasite stage in the drug treated wells relative to the same stage in the negative control wells.
The inhibitory effects of active compounds or reference drugs on parasite development and schizont rupture were determined by quantitative light microscopy as previously described (Lee et al., 2015). Briefly, synchronized cultures (1.5% hematocrit and 3% parasitemia) at different time-points (early rings, mid trophozoites and schizonts) were treated with either test compound or controls at 10 μM final concentration for 24 h under regular culture conditions. Following treatment, Giemsa-stained thin smears were prepared and parasites were counted in 1,000 erythrocytes per treatment. Stage proportions in test wells relative to solvent control wells were calculated and used to assess the in vitro effects of each compound on trophozoites and schizont development as well as merozoite egress and invasion.

[3] = tested on: hemoglobin metabolism in P. falciparum ring and trophozoite stage parasites; test: Effect on hemoglobin degradation (intraparasitic hemoglobin content); format: cell-based, Plasmodium falciparum; conditions: 10 μM, 24 h, relative to E64-treated cultures
Procedure: Owing to the fact that the DSIIQs are constructed from the THIQ pharmacophore of naphthylisoquinolines, which appear to target proteases involved in hemoglobin degradation, we assessed the effect of this DSIIQ on hemoglobin metabolism. Briefly, tightly synchronized ring and trophozoite stage parasites were treated with test compounds for 24 h followed by parasite isolation and quantification of the intraparasitic hemoglobin contents.
To investigate drug effects on hemoglobin degradation, early ring and mid-trophozoite stage parasites (1.5% hematocrit, 5% parasitemia) were co-cultured with the test compounds or experimental controls (0.1% DMSO, chloroquine, artemisinin NITD609 and E64) at a final concentration of 10 μM. The cultures were incubated at 37° C. and 5% CO2 for 24 h. Following incubation, inhibitors were removed by centrifugation at 1800 rpm for 5 min. The pellets were washed in an equal volume of 1×PBS and re-suspended in same volume of 0.1% saponin (in 1×PBS) for 3 min. Isolated parasites were pelleted at 2500 rpm for 5 min and washed twice in an equal volume of 1×PBS. The resulting parasite pellets were permeabilized by treatment in 20 μL of 1% Triton X-100 (in 1×PBS) for 5 min. Intraparasitic hemoglobin content was measured at 550 nm using a Nanodrop spectrophotometer, and folds increase in intra-parasite hemoglobin content was calculated relative to the E64-treated controls.

[4] = tested on: CQ-sensitive 3D7 strain of P. falciparum; test: SYBR green I-based parasite growth inhibition assay, 3D7 strain; format: cell-based, Plasmodium falciparum; conditions: for EC50: Plasmodium falciparum
[5] = tested on: P. chabaudi-infected mice; test: Peter's four-day suppressive test (chemosuppressive activity); format: in vivo, Swiss albino mice
Procedure: Following the encouraging in vitro antiplasmodial activities and cytotoxicity profiles reported above, as well as the ADMET properties of the primary and secondary hits identified in this study, studies were carried out to assess the in vivo efficacy of these compounds in laboratory mice. Chemosuppressive potentials were assessed using the Peter's four-day test whereas the ability of each compound to cure an established plasmodial infection was determined using the Rane's test. To assess the in vivo chemosuppressive potential of the compounds, groups of P. chabaudi-infected mice were treated by ip injection for 3 days following infection using fixed doses of 0.03, 0.3, 3, 10, or 30 mg/kg for each compound. The percent suppression of parasite growth in treated groups was calculated relative to the control group and the growth inhibition curves plotted.
Eight-week old male Swiss albino mice weighing approximately 23±3 g were housed in cages and maintained in a well-ventilated room under standard environmental conditions of temperature at 22-24° C., under a 12 h dark-light cycle, with food and water provided ad libitum.
The animals were allowed one week acclimation before commencement of the study. Three (3) mice were infected with stocked blood containing Plasmodium chabaudi parasites and used as donors. In brief, frozen blood containing the sulfadoxine/pyrimethamine resistant P. c. chabaudi (AS(50S/P) parasites was thawed and about 200 μL parasites were injected intra-peritoneally (i.p) into each of the three mice and parasitemia monitored through blood smear until a 20% threshold was reached. These infected animals then served as donors to the experimental animals. Ethical approval for the study was obtained from the University of Douala Institutional Review Board (N^oIEC-UD/1146/09/2017/A).
In vivo efficacies were conducted following a modification of the Peter's four-day suppressive test as previously described (Lee et al., 2014, Tarkang et al., 2014). Briefly, following parasite passage in donor mice, the mice were euthanized using diethyl ether and P. c. chabaudi infected blood was obtained by cardiac puncture and placed into heparinized tubes. The blood was then diluted with phosphate buffered saline (PBS) and immediately used to infect the experimental mice. Mice were randomly divided into seven (7) groups of 3 animals and each mouse was injected with 1×10^7 infected erythrocytes intraperitoneally (Day 0). The mice were kept for 24 hours to establish infection and Giemsa thin blood smears were prepared to quantify parasites (Day 1). Thereafter, groups 1, 2, 3, 4 and 5 were treated with compounds dissolved in 1×PBS, intraperitoneally at dosages of 30, 10, 3, 0.3 and 0.03 mg/kg body weight, respectively, while groups 6 and 7 were treated with vehicle or chloroquine at 10 mg/kg, respectively for three consecutive days (Day 1-Day 3). Twenty-four (24) and ninety-six (96) hours post-infection, thin blood smears were prepared from each animal with blood obtained from the tail vein, fixed in methanol and stained with 10% Giemsa.
Parasitemia was determined by light microscopy using a 100× objective lens and the following equation: […]
Average percentage chemosuppression was calculated as
Where A is mean parasitemia in negative control and B is mean parasitemia in test group

[6] = tested on: Malaria parasites (ring-stage parasitized erythrocytes); test: Drug-combination (drug-drug interaction) studies, SYBR-Green I; format: cell-based, Plasmodium falciparum; conditions: in combination with artemisinin
Procedure: In view of the overlapping modes of action between the hybrids and some known antimalarial drugs in terms of targeted cellular processes, we investigated the interaction between these compounds at variable combination ratios. Malaria parasites were continuously cultured and synchronized as earlier described prior to the assay.
Briefly, two-fold drug dilutions were prepared using a variable potency ratio drug combination approach, starting at 5EC50A: 0EC50B to 0EC50A: 5EC50B in serum-free medium, where A and B represent the different partner molecules.
The test was run for 72 h and terminated when the untreated parasites were at the early trophozoite stage of the second cycle. Parasite viability was assessed by the SYBR-Green I fluorescence-based assay as earlier described. Dose-response curves and EC50 values of each combination and drug alone were obtained using GraphPad Prism v.5.0 and Microsoft Excel was used to calculate mean EC50 values and the standard error of the mean.

Structure (SMILES): CC(C)C[C@H](NC(=O)[C@H]1O[C@@H]1C(=O)O)C(=O)NCCCCN=C(N)N (relative stereo) [Compound E64, L-trans-epoxysuccinyl-leucylamido-(4-guanidino)]
neutral lipid bodies / vacuolar lipid uptake (Oil red O) [1]: no effect on vacuolar lipid uptake
stage specific action on asexual blood stages (ring, trophozoite, schizont) [2]: only inhibiting schizont accumulation
intraparasitic hemoglobin content / accumulation [3]: minimal effect on hemoglobin degradation

Structure (SMILES): C[C@@H]1CC[C@H]2[C@@H](C)C(=O)O[C@@H]3O[C@@]4(C)CC[C@@H]1[C@]32OO4 [Artemisinin, artemisinin]
neutral lipid bodies / vacuolar lipid uptake (Oil red O) [1]: no effect on vacuolar lipid uptake
EC50 ([4]; Pf 3D7, 72 h, read-out: EC50): 0.0159 µM
stage specific action on asexual blood stages (ring, trophozoite, schizont) [2]: high proportions of the treated parasite stage at each treatment time-point; also recorded: exhibits inhibitory activities against ring-to-trophozoite development, trophozoite-to-schizont development and schizont rupture

melting point: 98 to 99 °C
Structure (SMILES): COc1cc2c(cc1OC)C1(NCC2)C(=O)Nc2ccc(F)cc21 (stereo not drawn) [Compound 8o, 5-fluoro-6′,7′-dimethoxy-3′,4′-dihydro-2′H-spiro[indoline-3,1′-isoquinolin]-2-one]

melting point: 220 to 221 °C
Structure (SMILES): COc1cc2c(cc1OC)C1(NCC2)C(=O)Nc2cc(F)c(F)cc21 (stereo not drawn) [Compound 8g, 5,6-difluoro-6′,7′-dimethoxy-3′,4′-dihydro-2′H-spiro[indoline-3,1′-isoquinolin]-2-one]

melting point: 186 to 187 °C
Structure (SMILES): COc1cc2c(cc1OC)C1(NCC2)C(=O)Nc2ccc(N)cc21 (stereo not drawn) [Compound 8f, 5-amino-6′,7′-dimethoxy-3′,4′-dihydro-2′H-spiro[indoline-3,1′-isoquinolin]-2-one]

Structure (SMILES): COc1cc2c(cc1OC)C1(NCC2)C(=O)N(Cc2ccc(Br)cc2)c2ccc(Cl)cc21 (stereo not drawn) [Compound 8k]
parasite growth inhibition in primary assays ([4]; primary screening at 10 μM, Pf 3D7, 72 h): ~52%

Structure (SMILES): COc1cc2c(cc1OC)C1(NC(C)C2)C(=O)Nc2ccc(Cl)cc21 (racemic) [Compound 11, 5-chloro-6′,7′-dimethoxy-3′-methyl-3′,4′-dihydro-2′H-spiro[indoline-3,1′-isoquinolin]-2-one]
suppression of parasitemia ([5]; 0.3 mg/kg ip): slight advantage over (±)-moxiquindole
suppression of parasitemia ([5]; 3.0 mg/kg ip): 98%
ED50 ([5]; Mus musculus, ip, 72 h, read-out: suppressive ED50): 0.049 mg/kg
times more potent than (±)-moxiquindole ([4]; Pf 3D7): 80 times
fold more active than the primary hit (±)-moxiquindole ([4]; Pf 3D7 EC50 ratio): 77 fold
EC50 ([4]; Pf 3D7, 72 h, read-out: EC50): 0.024 µM
stage specific action on asexual blood stages (ring, trophozoite, schizont) [2]: exhibits inhibitory activities against ring-to-trophozoite development, trophozoite-to-schizont development and schizont rupture
vacuolation in treated parasites [2]: induced vacuolation in parasites
intraparasitic hemoglobin content / accumulation [3]: accumulation of intra-parasitic hemoglobin

melting point: 174 to 175 °C
Structure (SMILES): COc1cc2c(cc1OC)C1(NCC2)C(=O)Nc2ccc([N+](=O)[O-])cc21 (stereo not drawn) [Compound 8e, 6′,7′-dimethoxy-5-nitro-3′,4′-dihydro-2′H-spiro[indoline-3,1′-isoquinolin]-2-one]

Structure (SMILES): C[C@H]1Cc2c([nH]c3cc(Cl)c(F)cc23)[C@@]2(N1)C(=O)Nc1ccc(Cl)cc12 [NITD609]
stage specific action on asexual blood stages (ring, trophozoite, schizont) [2]: exhibits inhibitory activities against ring-to-trophozoite development, trophozoite-to-schizont development and schizont rupture
vacuolation in treated parasites [2]: induced vacuolation in parasites

Structure (SMILES): CCN(CC)CCCC(C)Nc1ccnc2cc(Cl)ccc12 (stereo not drawn) [chloroquine]
neutral lipid bodies / vacuolar lipid uptake (Oil red O) [1]: devoid of neutral lipid bodies
suppression of parasitemia ([5]; 10 mg/kg, compared with 98% by test compounds at 3.0 mg/kg): comparable level of suppression of parasitemia
EC50 ([4]; 3D7, 72 h): 0.0139 µM
stage specific action on asexual blood stages (ring, trophozoite, schizont) [2]: rapid accumulation of early rings and trophozoites but not schizonts; also recorded: exhibits inhibitory activities against ring-to-trophozoite development, trophozoite-to-schizont development and schizont rupture
combination index (CI) [6]: 1.183

— patent publication US20230132973A1, “DIHYDRO-SPIRO[INDOLINE-3:1'-iSOQUINOLIN]-2-ONES AS ANTIMALARIAL AGENTS” (The University of Buea, priority 2020, published 2023)
